The test system of data set [1] is Rattus norvegicus. The data set is described as follows: Hepatotoxicity in Sprague-Dawley rat assessed as serum aspartate aminotransferase level at 50 mg/kg, po daily for 1 week by Reitman-Frankel colorimetric procedure. Format: toxicity, organism-based. On the set-up: dose 50 mg/kg, route oral. Conditions: in vivo, 168 h.
Data set [2] relates to Rattus norvegicus. The data set is described as follows: Antiinflammatory against carrageenan-induced paw edema in Sprague-Dawley rat assessed as remaining paw edema at 50 mg/kg, sc administered 30 mins before carrageenan challenge measured after 2 hrs by plethysmometer relative to control. It counts as functional. Conditions: route subcutaneous. (The carrageenan paw model is a standard test of acute inflammation.)

For data set [3], the system named is Rattus norvegicus. The data set is described as follows: Gastrointestinal toxicity in Sprague-Dawley rat assessed as gastric mucosal lesion at 50 mg/kg, po daily for 1 week. Format: organism-based, Gastric mucosa. Also noted: dose 50 mg/kg, route oral. Conditions: in vivo, 168 h.
In data set [4] the test system is Rattus norvegicus. The data set is described as follows: Antiinflammatory against carrageenan-induced paw edema in Sprague-Dawley rat assessed as remaining paw edema at 50 mg/kg, sc administered 30 mins before carrageenan challenge measured after 1 hr by plethysmometer relative to control. It counts as functional. Conditions: route subcutaneous.
The test system of data set [5] is Rattus norvegicus. The data set is described as follows: Antiinflammatory against carrageenan-induced paw edema in Sprague-Dawley rat assessed as remaining paw edema at 50 mg/kg, sc administered 30 mins before carrageenan challenge measured after 4 hrs by plethysmometer relative to control. It counts as functional. The following applies: route subcutaneous.
The test system of data set [6] is Rattus norvegicus. The data set is described as follows: Analgesic activity in Sprague-Dawley rat assessed as change in latency time required to elicit jumping or hind paw licking at 25 mg/kg, sc administered 1 hr prior testing measured after 1 hr of post dose by hot plate method relative to basal level. It counts as functional. The following applies: route subcutaneous. In general terms: Hot-plate and tail-flick tests time the reaction to a heat stimulus.

The test system of data set [7] is Mus musculus. The data set is described as follows: Analgesic activity in Swiss albino mouse assessed as inhibition of acetic acid-induced abdominal constriction at 25 mg/kg, sc administered 30 mins prior to acetic acid challenge measured for 30 mins relative to control. The following applies: Abdomen, route subcutaneous. Format: functional.
For data set [8], the system named is Rattus norvegicus. The data set is described as follows: Hepatotoxicity in Sprague-Dawley rat assessed as serum alanine aminotransferase level at 50 mg/kg, po daily for 1 week by Reitman-Frankel colorimetric procedure. It counts as toxicity, organism-based. Also noted: dose 50 mg/kg, route oral. The following applies: in vivo, 168 h.
Data set [9] concerns Rattus norvegicus. The data set is described as follows: Antiinflammatory against carrageenan-induced paw edema in Sprague-Dawley rat assessed as remaining paw edema at 25 mg/kg, sc administered 30 mins before carrageenan challenge measured after 1 hr by plethysmometer relative to control. It counts as functional. The following applies: route subcutaneous.
In data set [10] the test system is Rattus norvegicus. The data set is described as follows: Antiinflammatory against carrageenan-induced paw edema in Sprague-Dawley rat assessed as remaining paw edema at 25 mg/kg, sc administered 30 mins before carrageenan challenge measured after 3 hrs by plethysmometer relative to control. Conditions: route subcutaneous. It counts as functional.
The subject of data set [11] is Rattus norvegicus. The data set is described as follows: Antiinflammatory against carrageenan-induced paw edema in Sprague-Dawley rat assessed as remaining paw edema at 50 mg/kg, sc administered 30 mins before carrageenan challenge measured after 3 hrs by plethysmometer relative to control. It counts as functional. Conditions: route subcutaneous.
The test system of data set [12] is Rattus norvegicus. The data set is described as follows: Analgesic activity in Sprague-Dawley rat assessed as change in latency time required to elicit jumping or hind paw licking at 25 mg/kg, sc administered 1 hr prior testing measured after 2 hrs of post dose by hot plate method relative to basal level. Conditions: route subcutaneous. It counts as functional.

For data set [13], the system named is Rattus norvegicus. The data set is described as follows: Antiinflammatory against carrageenan-induced paw edema in Sprague-Dawley rat assessed as remaining paw edema at 25 mg/kg, sc administered 30 mins before carrageenan challenge measured after 4 hrs by plethysmometer relative to control. Conditions: route subcutaneous. It counts as functional.
Data set [14] concerns Rattus norvegicus. The data set is described as follows: Antiinflammatory against carrageenan-induced paw edema in Sprague-Dawley rat assessed as remaining paw edema at 25 mg/kg, sc administered 30 mins before carrageenan challenge measured after 2 hrs by plethysmometer relative to control. Format: functional. Conditions: route subcutaneous.
Data set [15] deals with Rattus norvegicus. The data set is described as follows: Antiinflammatory against carrageenan-induced paw edema in Sprague-Dawley rat assessed as remaining paw edema at 10 mg/kg, sc administered 30 mins before carrageenan challenge measured after 3 hrs by plethysmometer relative to control. Conditions: route subcutaneous. Format: functional.
Data set [16] deals with Rattus norvegicus. The data set is described as follows: Antiinflammatory against carrageenan-induced paw edema in Sprague-Dawley rat assessed as remaining paw edema at 10 mg/kg, sc administered 30 mins before carrageenan challenge measured after 4 hrs by plethysmometer relative to control. Format: functional. Conditions: route subcutaneous.
Data set [17] has as its system Rattus norvegicus. The data set is described as follows: Antiinflammatory against carrageenan-induced paw edema in Sprague-Dawley rat assessed as remaining paw edema at 10 mg/kg, sc administered 30 mins before carrageenan challenge measured after 1 hr by plethysmometer relative to control. Conditions: route subcutaneous. Format: functional.
Data set [18] has as its system Rattus norvegicus. The data set is described as follows: Antiinflammatory against carrageenan-induced paw edema in Sprague-Dawley rat assessed as remaining paw edema at 10 mg/kg, sc administered 30 mins before carrageenan challenge measured after 2 hrs by plethysmometer relative to control. Format: functional. Conditions: route subcutaneous.
Data set [19] relates to Rattus norvegicus. The data set is described as follows: Analgesic activity in Sprague-Dawley rat assessed as change in latency time required to elicit jumping or hind paw licking at 10 mg/kg, sc administered 1 hr prior testing measured after 2 hrs of post dose by hot plate method relative to basal level. Format: functional. The following applies: route subcutaneous.
In data set [20] the test system is Mus musculus. The data set is described as follows: Analgesic activity in Swiss albino mouse assessed as inhibition of acetic acid-induced abdominal constriction at 10 mg/kg, sc administered 30 mins prior to acetic acid challenge measured for 30 mins relative to control. The following applies: Abdomen, route subcutaneous. Format: functional.
In data set [21] the test system is Rattus norvegicus. The data set is described as follows: Analgesic activity in Sprague-Dawley rat assessed as change in latency time required to elicit jumping or hind paw licking at 10 mg/kg, sc administered 1 hr prior testing measured after 1 hr of post dose by hot plate method relative to basal level. Format: functional. Conditions: route subcutaneous.
For data set [22], the system named is Rattus norvegicus. The data set is described as follows: Analgesic activity in Sprague-Dawley rat assessed as latency time required to elicit jumping or hind paw licking at 25 mg/kg, sc administered 1 hr prior testing measured after 2 hrs of post dose by hot plate method. It counts as functional. The following applies: route subcutaneous.

This passage reports Activity and inhibition in vivo results from ChEMBL document CHEMBL1137672, “Synthesis and pharmacological evaluation of 2-substituted benzo[b]thiophenes as anti-inflammatory and analgesic agents” (Eur J Med Chem, 2009).

The term inhibition in vivo denotes the relative decrease from the control value, in per cent. With `NNC(=O)c1cc2cc([N+](=O)[O-])ccc2s1`, the Activity entry is “Non-toxic” in [1]; 42.2% in data set [2]; “Non-toxic” in data set [3]; 38.2% in [4]; 51.3% in [5]; 24.7% in data set [6]. Besides, the Activity result in [8] is “Non-toxic”; in data set [9] it was 49.4%; in [10], 55.9%; in data set [11], 46.3%; in data set [12] it was 31.6%; in data set [13] it was 55.9%. For the same compound, the Activity in [14] is 51.9%. Further, the inhibition in vivo at 25 mg/kg in data set [7] was -88.2%.

`NNC(=O)Nc1cc2cc([N+](=O)[O-])ccc2s1`: the Activity entry in [1] is reported as “Non-toxic”; in data set [2], 45.9%; in data set [3], “Non-toxic”; in data set [4] it was 45.9%; in [5] it was 56.4%; in data set [6], 19.4%. Also, the Activity result in [8] is on record as “Non-toxic”; in data set [9], 59.7%; in [10] it was 79%; in data set [11], 54.3%; in [12], 7.5%; in [13] it was 80%. In data set [14], the Activity was determined as 71.2%. In addition, in data set [7], the inhibition in vivo at 25 mg/kg is -43.4%.

Regarding `Cc1ccc(/C=N/NC(=O)c2cc3cc([N+](=O)[O-])ccc3s2)o1`, the Activity result in data set [1] is “Non-toxic”; in data set [2] it was 41.6%; in data set [3], “Non-toxic”; in [4], 37.5%; in [5] it was 40.7%; in [6], 19.8%. Moreover, the Activity result in data set [8] was “Non-toxic”; in data set [9], 55.9%; in data set [10] it was 92.2%; in data set [11], 41.3%; in data set [12], 22.39%; in data set [13] it was 92%. In data set [14], the Activity is given as 77.2%. Further, in data set [7], the inhibition in vivo at 25 mg/kg was -43.1%.

Turning to `CN1C(C(=O)Nc2ccccn2)=C(O)c2ccccc2S1(=O)=O` [PIROXICAM], the Activity in data set [15] is listed as 51.4%; in data set [16], 51.4%; in data set [17], 35.9%; in data set [18], 42.9%; in [19], 8.3%; in [21] it was 21.4%. The inhibition in vivo at 10 mg/kg in data set [20] is -56.9%.

In the case of `O=C(N/N=C/c1c[nH]c2ccccc12)c1cc2cc([N+](=O)[O-])ccc2s1`, the Activity result is on record as “Non-toxic” in data set [1]; 46.5% in data set [2]; “Non-toxic” in data set [3]; 36.9% in data set [4]; 49.6% in data set [5]; 16.6% in [6]. The Activity result was “Non-toxic” in data set [8]; 63.2% in data set [9]; 90.1% in data set [10]; 46.6% in data set [11]; 14.72 s in data set [22]; 90% in data set [13]. In data set [14], the Activity is listed as 89.1%. In [7], the inhibition in vivo at 25 mg/kg came to 16.9%.

Consider `O=C(NNC(=S)Nc1ccccc1)c1cc2cc([N+](=O)[O-])ccc2s1`, for which the Activity entry in data set [1] is “Non-toxic”; in [2], 42.7%; in [3] it was “Non-toxic”; in data set [4], 35.7%; in data set [5], 46.2%; in data set [6] it was 36.5%. The Activity result is listed as “Non-toxic” in [8]; 40% in data set [9]; 54.6% in data set [10]; 45.3% in data set [11]; 16.66 s in [22]; 58.7% in data set [13]. In [14], the Activity amounted to 48.1%. Also, the inhibition in vivo at 25 mg/kg in [7] was -63.4%.
